PubChem BioAssay AID1963421 (Molecular Pharmacology Branch, DTP, NCI, 2024)

Tested on: 519858-162-T-J1-PDC complex spheroid growth, % test/control
Experiment: Anticancer human tumor 519858-162-T-J1-PDC patient-derived colon adenocarcinoma cell line growth inhibition [Asc]
Conditions: for IC50: curve of first compound; for viability, T/C: stronger effect = lower value
In short: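 Tumor cells were grown as complex spheroids with human endothelial cells (HUVEC) and human mesenchymal stem cells as stroma. Agents were tested alone and in combination, in half-log steps down from the clinical Cmax, or from 10 microM where Cmax was unknown.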

[1] = second compound 0.00949 µM, first compound 0.0316 µM
[2] = second compound 0.00949 µM, first compound 0.1 µM
[3] = second compound 0.00949 µM, first compound 0.316 µM
[4] = second compound 0.00949 µM, first compound 1 µM
[5] = second compound 0.03 µM, first compound 0.0316 µM
[6] = second compound 0.03 µM, first compound 0.1 µM
[7] = second compound 0.03 µM, first compound 0.316 µM
[8] = second compound 0.03 µM, first compound 1 µM
[9] = second compound 0.0949 µM, first compound 0.0316 µM
[10] = second compound 0.0949 µM, first compound 0.1 µM
[11] = second compound 0.0949 µM, first compound 0.316 µM
[12] = second compound 0.0949 µM, first compound 1 µM
[13] = second compound 0.3 µM, first compound 0.0316 µM
[14] = second compound 0.3 µM, first compound 0.1 µM
[15] = second compound 0.3 µM, first compound 0.316 µM
[16] = second compound 0.3 µM, first compound 1 µM
[17] = second compound 0.949 µM, first compound 0.0316 µM
[18] = second compound 0.949 µM, first compound 0.1 µM
[19] = second compound 0.949 µM, first compound 0.316 µM
[20] = second compound 0.949 µM, first compound 1 µM
[21] = second compound 3 µM, first compound 0.0316 µM
[22] = second compound 3 µM, first compound 0.1 µM
[23] = second compound 3 µM, first compound 0.316 µM
[24] = second compound 3 µM, first compound 1 µM
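Further: seven day drug exposure begun three days after spheroid seeding.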
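Wherever viability, T/C is given: 100% = DMSO vehicle wells and lower values mean less viable spheroid.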

Q: For `C#Cc1c(F)ccc2cc(O)cc(-c3ncc4c(N5CC6CCC(C5)N6)nc(OCC56CCCN5CC(F)C6)nc4c3F)c12` (centres undefined) + CCN1C(C(=O)NC23CCC(C(=O)O)(CC2)CC3)C(c2cccc(Cl)c2F)C2(C(=O)Nc3cc(Cl)ccc32)C12CCCCC2, which IC50 (second compound 0.00949 µM) is on record?
A: Its IC50 is over 10 µM.

Q: And the IC50 (second compound 0.03 µM)?
A: Its IC50 is over 10 µM.

Q: And the IC50 (second compound 0.0949 µM)?
A: The IC50 was over 10 µM.

Q: What about the IC50 (second compound 0.3 µM) of the same compound?
A: Its IC50 is over 10 µM.

Q: And the IC50 (second compound 0.949 µM)?
A: Its IC50 is over 10 µM.

Q: And the IC50 (second compound 3 µM)?
A: Its IC50 is over 10 µM.

Q: And the viability, T/C [1]?
A: The viability, T/C was 75.2%.

Q: And the viability, T/C [2]?
A: Its viability, T/C is 104%.

Q: What about the viability, T/C [3] of the same compound?
A: Its viability, T/C is 84.3%.

Q: What about the viability, T/C [4] of the same compound?
A: The viability, T/C was 66.3%.

Q: What about the viability, T/C (second compound 0.00949 µM, first compound 3.16 µM) of the same compound?
A: The viability, T/C was 82.3%.

Q: What about the viability, T/C (second compound 0.00949 µM, first compound 10 µM) of the same compound?
A: Its viability, T/C is 64%.

Q: And the viability, T/C [5]?
A: The viability, T/C was 67.5%.

Q: What about the viability, T/C [6] of the same compound?
A: The viability, T/C was 84.6%.

Q: And the viability, T/C [7]?
A: Its viability, T/C is 96.4%.

Q: What about the viability, T/C [8] of the same compound?
A: Its viability, T/C is 92.4%.

Q: What about the viability, T/C (second compound 0.03 µM, first compound 3.16 µM) of the same compound?
A: Its viability, T/C is 94.3%.

Q: And the viability, T/C (second compound 0.03 µM, first compound 10 µM)?
A: The viability, T/C was 88.4%.

Q: What about the viability, T/C [9] of the same compound?
A: Its viability, T/C is 89.6%.

Q: What about the viability, T/C [10] of the same compound?
A: Its viability, T/C is 99.2%.

Q: What about the viability, T/C [11] of the same compound?
A: The viability, T/C was 88.4%.

Q: What about the viability, T/C [12] of the same compound?
A: Its viability, T/C is 64.1%.

Q: What about the viability, T/C (second compound 0.0949 µM, first compound 3.16 µM) of the same compound?
A: Its viability, T/C is 81.4%.

Q: What about the viability, T/C (second compound 0.0949 µM, first compound 10 µM) of the same compound?
A: Its viability, T/C is 69%.

Q: And the viability, T/C [13]?
A: Its viability, T/C is 59.4%.

Q: What about the viability, T/C [14] of the same compound?
A: Its viability, T/C is 95.5%.

Q: What about the viability, T/C [15] of the same compound?
A: Its viability, T/C is 78.4%.

Q: What about the viability, T/C [16] of the same compound?
A: Its viability, T/C is 71.2%.

Q: And the viability, T/C (second compound 0.3 µM, first compound 3.16 µM)?
A: The viability, T/C was 74.2%.

Q: What about the viability, T/C (second compound 0.3 µM, first compound 10 µM) of the same compound?
A: Its viability, T/C is 102%.

Q: And the viability, T/C [17]?
A: The viability, T/C was 53.3%.

Q: What about the viability, T/C [18] of the same compound?
A: Its viability, T/C is 116%.

Q: And the viability, T/C [19]?
A: Its viability, T/C is 81.3%.

Q: What about the viability, T/C [20] of the same compound?
A: The viability, T/C was 58.5%.

Q: What about the viability, T/C (second compound 0.949 µM, first compound 3.16 µM) of the same compound?
A: Its viability, T/C is 86.6%.

Q: And the viability, T/C (second compound 0.949 µM, first compound 10 µM)?
A: The viability, T/C was 93.6%.

Q: What about the viability, T/C [21] of the same compound?
A: Its viability, T/C is 64.2%.

Q: What about the viability, T/C [22] of the same compound?
A: The viability, T/C was 60.6%.

Q: What about the viability, T/C [23] of the same compound?
A: Its viability, T/C is 63.3%.

Q: What about the viability, T/C [24] of the same compound?
A: The viability, T/C was 77.7%.

Q: What about the viability, T/C (second compound 3 µM, first compound 3.16 µM) of the same compound?
A: The viability, T/C was 93%.

Q: What about the viability, T/C (second compound 3 µM, first compound 10 µM) of the same compound?
A: The viability, T/C was 66.7%.

Q: How did the IC50 (second compound 0.00949 µM) turn out when `CNC(C)C(=O)NC1CN(S(=O)(=O)c2cccc(S(=O)(=O)N3CCC4CCC(C(=O)NC(c5ccccc5)c5ccccc5)N4C(=O)C(NC(=O)C(C)NC)C3)c2)CCC2CCC(C(=O)NC(c3ccccc3)c3ccccc3)N2C1=O` (centres undefined) + CCN1C(C(=O)NC23CCC(C(=O)O)(CC2)CC3)C(c2cccc(Cl)c2F)C2(C(=O)Nc3cc(Cl)ccc32)C12CCCCC2 was run?
A: The IC50 was under 0.00316 µM.

Q: What about the IC50 (second compound 0.03 µM) of the same compound?
A: The IC50 was over 1 µM.

Q: What about the IC50 (second compound 0.0949 µM) of the same compound?
A: The IC50 was over 1 µM.

Q: And the IC50 (second compound 0.3 µM)?
A: The IC50 was over 1 µM.

Q: And the IC50 (second compound 0.949 µM)?
A: Its IC50 is over 1 µM.

Q: And the IC50 (second compound 3 µM)?
A: Its IC50 is over 1 µM.

Q: And the viability, T/C (second compound 0.00949 µM, first compound 0.00316 µM)?
A: Its viability, T/C is 49.9%.

Q: And the viability, T/C (second compound 0.00949 µM, first compound 0.01 µM)?
A: The viability, T/C was 104%.

Q: And the viability, T/C [1]?
A: Its viability, T/C is 91.5%.

Q: And the viability, T/C [2]?
A: The viability, T/C was 64.4%.

Q: What about the viability, T/C [3] of the same compound?
A: The viability, T/C was 98.7%.

Q: What about the viability, T/C [4] of the same compound?
A: The viability, T/C was 74.6%.

Q: What about the viability, T/C (second compound 0.03 µM, first compound 0.00316 µM) of the same compound?
A: The viability, T/C was 112%.

Q: And the viability, T/C (second compound 0.03 µM, first compound 0.01 µM)?
A: Its viability, T/C is 89.9%.

Q: And the viability, T/C [5]?
A: Its viability, T/C is 88.3%.

Q: And the viability, T/C [6]?
A: The viability, T/C was 79%.

Q: And the viability, T/C [7]?
A: The viability, T/C was 54.9%.

Q: And the viability, T/C [8]?
A: The viability, T/C was 99%.

Q: What about the viability, T/C (second compound 0.0949 µM, first compound 0.00316 µM) of the same compound?
A: Its viability, T/C is 89.1%.

Q: And the viability, T/C (second compound 0.0949 µM, first compound 0.01 µM)?
A: The viability, T/C was 73.9%.

Q: And the viability, T/C [9]?
A: Its viability, T/C is 85.1%.

Q: What about the viability, T/C [10] of the same compound?
A: Its viability, T/C is 75.4%.

Q: And the viability, T/C [11]?
A: Its viability, T/C is 60.4%.

Q: What about the viability, T/C [12] of the same compound?
A: Its viability, T/C is 96.4%.

Q: What about the viability, T/C (second compound 0.3 µM, first compound 0.00316 µM) of the same compound?
A: Its viability, T/C is 94.6%.

Q: What about the viability, T/C (second compound 0.3 µM, first compound 0.01 µM) of the same compound?
A: The viability, T/C was 75.3%.

Q: What about the viability, T/C [13] of the same compound?
A: The viability, T/C was 81.2%.

Q: What about the viability, T/C [14] of the same compound?
A: Its viability, T/C is 68.2%.

Q: What about the viability, T/C [15] of the same compound?
A: Its viability, T/C is 74.4%.

Q: What about the viability, T/C [16] of the same compound?
A: Its viability, T/C is 58.2%.

Q: And the viability, T/C (second compound 0.949 µM, first compound 0.00316 µM)?
A: Its viability, T/C is 94.3%.

Q: What about the viability, T/C (second compound 0.949 µM, first compound 0.01 µM) of the same compound?
A: The viability, T/C was 87.4%.

Q: And the viability, T/C [17]?
A: The viability, T/C was 85.7%.

Q: And the viability, T/C [18]?
A: The viability, T/C was 70.5%.

Q: What about the viability, T/C [19] of the same compound?
A: Its viability, T/C is 68.2%.

Q: And the viability, T/C [20]?
A: Its viability, T/C is 66%.

Q: And the viability, T/C (second compound 3 µM, first compound 0.00316 µM)?
A: Its viability, T/C is 62%.

Q: What about the viability, T/C (second compound 3 µM, first compound 0.01 µM) of the same compound?
A: The viability, T/C was 76.1%.

Q: What about the viability, T/C [21] of the same compound?
A: The viability, T/C was 72.4%.

Q: And the viability, T/C [22]?
A: The viability, T/C was 93.9%.

Q: And the viability, T/C [23]?
A: Its viability, T/C is 73.2%.

Q: And the viability, T/C [24]?
A: The viability, T/C was 74%.
